The source of these data is patent US20260242324A1, “FATTY ACID MIMETICS AS MODULATORS OF GPR40 AND/OR GPR120” (Trustees of Dartmouth College, priority 2023, published 2026).

Where two headings read alike, the source gives them in different places.

For orientation: EC50 means the concentration that produces a half-maximal response.

One test addresses T1, GPR40 (Homo sapiens, UniProt O14842).
T1 construct: beta-galactosidase enzyme fragment for EFC (ProLink-type tag); expressed in transfected cells
Put plainly: β-arrestin assay (PathHunter) for GPR40 agonism. The conditions noted are these: for activity at GPR40 in heat map of % maximal efficacy: single dose 15 μM, FIG. 9A, compared to oleic acid at 15 μM; for GPR40 agonism / selectivity for GPR40 over GPR120 / EC50: dose-response; for GPR40 agonism / selectivity for GPR40 over GPR120: FIG. 9B; for potency at GPR40 relative to oleic acid: multiple of oleic acid potency; for EC50: PathHunter β-arrestin. In kind it is cell-based. As to the method: (§1) In this example, compounds from Example 1 were assessed as functional ligands (agonists) to two oleic acid receptors (GPR40 and GPR120). […]

In test [1] the target is T2, GPR120 (Homo sapiens, UniProt Q5NUL3).
T2 sequence (Q5NUL3 1-361): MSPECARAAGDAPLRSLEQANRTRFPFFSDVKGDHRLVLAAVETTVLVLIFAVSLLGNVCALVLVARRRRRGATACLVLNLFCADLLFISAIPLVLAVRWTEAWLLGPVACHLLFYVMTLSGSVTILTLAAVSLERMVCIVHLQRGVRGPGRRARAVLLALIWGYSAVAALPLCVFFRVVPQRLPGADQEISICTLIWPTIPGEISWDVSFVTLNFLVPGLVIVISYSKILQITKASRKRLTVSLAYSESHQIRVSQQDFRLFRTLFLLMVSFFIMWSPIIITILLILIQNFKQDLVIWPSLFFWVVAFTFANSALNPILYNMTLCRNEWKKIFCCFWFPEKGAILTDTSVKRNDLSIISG
Briefly: β-arrestin assay (PathHunter) for GPR120 agonism. Format: cell-based. Also noted: beta-galactosidase enzyme fragment for EFC (ProLink-type tag); expressed in transfected cells. Particulars: for EC50: PathHunter β-arrestin, dose-response; for agonist efficacy at GPR120: relative to oleic acid and GW9508; for activity at GPR120 in heat map of % maximal efficacy: single dose 15 μM, FIG. 9A, compared to oleic acid at 15 μM. As to the method:
as §1

In a further test the test system is MIN6 cells. Particulars: reported, concentrations as low as; cited from earlier work.
Test [2] concerns the target T2, GPR120. Particulars: read-out: EC50 as agonist of GPR120; reported; cited from earlier work.
The target in another test is T3, CHO-mGPR40 cells (Mus musculus, UniProt Q76JU9).
T3 construct: host or cells: CHO cells transfected with mGPR40
T3 sequence (Q76JU9 whole entry): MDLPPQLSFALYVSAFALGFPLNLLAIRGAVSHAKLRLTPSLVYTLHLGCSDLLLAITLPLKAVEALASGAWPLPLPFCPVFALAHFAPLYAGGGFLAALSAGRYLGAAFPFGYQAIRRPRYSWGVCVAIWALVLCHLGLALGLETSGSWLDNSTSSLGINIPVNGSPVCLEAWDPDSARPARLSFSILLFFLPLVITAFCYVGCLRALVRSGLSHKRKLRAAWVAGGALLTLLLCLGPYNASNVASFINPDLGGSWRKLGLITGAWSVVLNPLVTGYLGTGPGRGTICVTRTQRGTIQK
The conditions noted are these: reported; read-out: EC50, stimulatory activity on CHO-mGPR40 cells; cited from earlier work.

T1 sequence (O14842 whole entry, the tested form may be a part): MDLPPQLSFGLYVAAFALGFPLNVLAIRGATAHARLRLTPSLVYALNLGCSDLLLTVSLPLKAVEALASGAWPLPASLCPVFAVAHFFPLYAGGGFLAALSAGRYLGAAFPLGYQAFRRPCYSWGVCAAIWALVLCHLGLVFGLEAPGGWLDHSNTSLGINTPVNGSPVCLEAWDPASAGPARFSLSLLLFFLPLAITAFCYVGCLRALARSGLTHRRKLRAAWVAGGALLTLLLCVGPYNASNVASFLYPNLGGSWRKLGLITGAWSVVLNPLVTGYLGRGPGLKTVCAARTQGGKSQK

On to `CCCCCCCCCC/C=C(/C)C/C(C)=C/[C@H](C)CC(=O)O` [Compound 1-A], for which the “activity at GPR40 in heat map of % maximal efficacy” value on GPR40 is “enriched for activity at GPR40”.

For the compound `CCCCCCCCC[C@@H](C)/C=C(/C)C/C(C)=C/[C@H](C)CC(=O)O` [Compound 1-C], on GPR40, the “GPR40 agonism” value was “exceptionally selective and potent agonists of GPR40”; the “selectivity for GPR40 over GPR120” value is given as “substantial selectivity over GPR120”; the “activity at GPR40 in heat map of % maximal efficacy” value is “enriched for activity at GPR40”.

In the case of `CCCCCCCCC[C@H](C)/C=C(/C)C/C(C)=C/[C@H](C)CC(=O)O` [Compound 1-E], on GPR40, the “GPR40 agonism” value was “exceptionally selective and potent agonists of GPR40”; the “selectivity for GPR40 over GPR120” value is on record as “substantial selectivity over GPR120”; the “potency at GPR40 relative to oleic acid” value was “twelve times greater than oleic acid”; the “activity at GPR40 in heat map of % maximal efficacy” value is “enriched for activity at GPR40”.

`CCCCCCCCC[C@H](C)/C=C(/C)C/C(C)=C/[C@@H](C)CC(=O)O` [Compound 1-F]: on GPR40, the “GPR40 agonism” value is “exceptionally selective and potent agonists of GPR40”; the “selectivity for GPR40 over GPR120” value is given as “substantial selectivity over GPR120”.

For the compound `CCCCCCC[C@@H](C)/C=C(/C)C/C(C)=C/[C@H](C)CCCC(=O)O` [Compound 2-C], on GPR40, the “GPR40 agonism” value is “effective agonists of GPR40” and the “potency at GPR40 relative to oleic acid” value is “approximately 6 fold”. On GPR120 [1], the “activity against GPR120” value is on record as “agonist activity against GPR120”; the EC50 lay within 1 to 7 µM; the “agonist efficacy at GPR120” value was “agonist efficacy at a fraction of what is observed with oleic acid and GW9508”; the “activity at GPR120 in heat map of % maximal efficacy” value is reported as “enriched for activity at GPR120”.

With `CCCCCCC[C@@H](C)/C=C(/C)C/C(C)=C/[C@@H](C)CCCC(=O)O` [Compound 2-D], at GPR40, the “GPR40 agonism” value is “effective agonists of GPR40” and the “potency at GPR40 relative to oleic acid” value is given as “approximately 6 fold”. On GPR120 [1], the concentration for a half-maximal effect (EC50) lay within 1 to 7 µM; the “agonist efficacy at GPR120” value was “agonist efficacy at a fraction of what is observed with oleic acid and GW9508”; the “activity at GPR120 in heat map of % maximal efficacy” value was “enriched for activity at GPR120”.

Turning to `CCCCCCC[C@H](C)/C=C(/C)C/C(C)=C/[C@H](C)CCCC(=O)O` [Compound 2-E], at GPR40, the “GPR40 agonism” value is recorded as “effective agonists of GPR40” and the “potency at GPR40 relative to oleic acid” value is listed as “approximately 6 fold”. Besides, the “selectivity for GPR120” value at GPR120 [1] (GPR120 over GPR40) worked out at 5 fold. On GPR120 [1], the EC50 fell in the range of 1 to 7 µM; the “agonist efficacy at GPR120” value is “agonist efficacy at a fraction of what is observed with oleic acid and GW9508”; the “activity at GPR120 in heat map of % maximal efficacy” value is listed as “enriched for activity at GPR120”. Also, the enhanced potency at GPR120 [1] (versus oleic acid or GW9508) is on record as 7-15 fold.

For `CCC[C@@H](C)/C=C(/C)C/C(C)=C/[C@H](C)CCCCCCCC(=O)O` [Compound 4-C], the “activity against GPR120” value at GPR120 [1] was “inactive against GPR120”.

For `O=C(O)CCc1ccc(NCc2cccc(Oc3ccccc3)c2)cc1` [GW9508, reference compound], the response on GPR40 was half-maximal at 1 µM (EC50).

As for `CCCCCCCC/C=C\CCCCCCCC(=O)O` [oleic acid, reference compound], the “concentration inducing insulin secretion in MIN6 cells” value with MIN6 cells was not below 1 µM. Further, the EC50 on GPR120 [2] was 12 µM; at GPR40, 37 µM; at CHO-mGPR40 cells it was 2 µM; on GPR120 [1], 15 µM. In addition, the “right shift of reporter assay results” value on GPR40 (versus reported values, receptor not specified) is ~ 20 fold. The “activity against GPR120” value at GPR120 [1] is given as “agonist activity against GPR120”.
